In US20240262857A1, “NOVEL UNIVERSAL ANTI-RNA VIRUS AGENTS” (priority 2021, published 2024):
Like-named read-outs stand apart in the source and are kept apart here.

How the values were obtained:
[1] = tested on: SARS-CoV-2; assay: microbe, parasite or virus in culture; assay type: cell-based
[2] = Cellular toxicity assay, CEM cells; details: human
[3] = Cellular toxicity assay, Huh7 cells; assay type: cell-based; details: human, read-out: Cytotoxicity CC50 Huh7
[4] = Cellular toxicity assay, PBM cells; details: human
[5] = Cellular toxicity assay, Vero cells; details: African green monkey
[6] = tested on: CEM cells; assay: Cellular toxicity assay, CEM cells; details: read-out: Cytotoxicity CC50 CEM; CEM cells
[7] = tested on: Vero cells; assay: Cellular toxicity assay, Vero cells; details: read-out: Cytotoxicity CC50 Vero; Vero cells
[8] = tested on: Vero cells; assay: Incubation of NHC in Vero cells, LC-MS/MS of deoxy-NHC derivatives; details: 4 h at 37° C.
[9] = tested on: HCoV-OC43; assay: microbe, parasite or virus in culture; assay type: cell-based; details: Betacoronavirus 1, OC43
[10] = target: T1, ribonucleotide reductase (RNR) (Homo sapiens, UniProt P23921)
T1 sequence (P23921 1-792): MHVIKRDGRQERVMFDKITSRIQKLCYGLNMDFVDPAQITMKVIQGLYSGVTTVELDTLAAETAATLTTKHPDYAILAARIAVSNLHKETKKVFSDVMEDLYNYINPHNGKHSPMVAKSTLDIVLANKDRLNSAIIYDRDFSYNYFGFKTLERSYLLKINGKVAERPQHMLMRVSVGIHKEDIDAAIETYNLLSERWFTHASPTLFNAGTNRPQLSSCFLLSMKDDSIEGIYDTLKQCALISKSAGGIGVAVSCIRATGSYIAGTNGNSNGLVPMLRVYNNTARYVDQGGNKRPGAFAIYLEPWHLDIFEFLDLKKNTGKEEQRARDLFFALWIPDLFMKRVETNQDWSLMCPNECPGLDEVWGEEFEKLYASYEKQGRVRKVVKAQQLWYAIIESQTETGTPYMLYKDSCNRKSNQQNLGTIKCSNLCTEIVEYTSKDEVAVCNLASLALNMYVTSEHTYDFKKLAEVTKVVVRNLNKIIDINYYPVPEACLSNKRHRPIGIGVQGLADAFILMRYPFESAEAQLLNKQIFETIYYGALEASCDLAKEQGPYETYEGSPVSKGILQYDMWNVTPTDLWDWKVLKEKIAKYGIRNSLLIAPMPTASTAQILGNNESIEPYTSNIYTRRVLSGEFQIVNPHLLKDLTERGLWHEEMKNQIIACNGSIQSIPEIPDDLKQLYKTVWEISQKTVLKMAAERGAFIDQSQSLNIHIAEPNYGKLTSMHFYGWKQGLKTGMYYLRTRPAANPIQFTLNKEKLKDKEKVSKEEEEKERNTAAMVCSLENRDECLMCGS
T1 sequence (P31350 1-389 partner): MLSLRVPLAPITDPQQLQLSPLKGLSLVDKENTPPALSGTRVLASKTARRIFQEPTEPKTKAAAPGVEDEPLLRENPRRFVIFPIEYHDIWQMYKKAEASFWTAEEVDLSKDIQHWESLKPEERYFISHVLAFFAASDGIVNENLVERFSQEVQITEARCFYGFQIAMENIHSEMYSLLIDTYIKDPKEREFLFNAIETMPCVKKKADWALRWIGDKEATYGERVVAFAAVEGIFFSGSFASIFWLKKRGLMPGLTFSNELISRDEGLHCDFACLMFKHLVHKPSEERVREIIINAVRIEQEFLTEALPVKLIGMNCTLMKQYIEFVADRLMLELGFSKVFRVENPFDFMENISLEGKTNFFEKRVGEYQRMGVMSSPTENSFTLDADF

[11] = Severe acute respiratory syndrome coronavirus 2, Calu-3, Calu3 cells, read-out: Anti-SARS-CoV-2 Activity (Calu3) EC50
[12] = Severe acute respiratory syndrome coronavirus 2, Calu-3, Calu3 cells, read-out: Anti-SARS-CoV-2 Activity (Calu3) EC90
[13] = Severe acute respiratory syndrome coronavirus 2, Vero cells, read-out: Anti-SARS-CoV-2 Activity (Vero) EC50
[14] = Severe acute respiratory syndrome coronavirus 2, Vero cells, read-out: Anti-SARS-CoV-2 Activity (Vero) EC90

For CC1(O)C(O)[C@H](n2ccc(NO)nc2=O)O[C@@H]1CO (stereo partly shown), the EC50 [1, 11] was over 100 µM, the EC90 [1, 12] was over 100 µM and the EC50 [1, 13] was 0.6 µM. The EC90 [1, 14] was 7.4 µM, the CC50 [2] was over 100 µM and the CC50 [3] was at least 100 µM. The CC50 [4] was over 100 µM and the CC50 [5] was over 100 µM.
[2H]C1(O)C(O)[C@H](n2ccc(NO)nc2=O)O[C@@H]1CO (stereo partly drawn) [D-NHC] showed an EC50 [1, 11] of 0.2 µM, an EC90 [1, 12] of 0.9 µM and an EC50 [1, 13] of 0.1 µM. For the same compound, the EC90 [1, 14] was 0.25 µM, the CC50 [3] was 27.7 µM and the CC50 [4] was 24.1 µM. The CC50 [5] was 41.6 µM.
O=c1nc(NO)ccn1[C@@H]1O[C@H](CO)[C@@H](O)[C@H]1O [NHC, N^4-hydroxycytidine] gave an EC50 [1, 11] of 0.6 µM, an EC90 [1, 12] of 2 µM and an EC50 ([1]; Severe acute respiratory syndrome coronavirus 2, read-out: Anti-SARS-Cov-2 EC50) of 0.3 µM. For the same compound, the EC50 [1, 13] was 0.2 µM, the EC90 [1, 14] was 0.42 µM and the EC90 ([1]; Severe acute respiratory syndrome coronavirus 2, read-out: Anti-SARS-Cov-2 EC90) was 0.8 µM. The CC50 [6] was 2.6 µM, the CC50 [7] was 16.5 µM and the “deoxy-NHC-TP detected in vero cells” value ([8]; 10 μM NHC, cell pellet) was “not”. For the same compound, the “deoxy-NHC-TP detected in vero cells” value ([8]; 50 μM NHC, cell pellet) was “trace amount”, the “level of deoxy-NHC, -MP and -DP in vero cells” value ([8]; cell pellet) was “below limit of detection” and the “deoxy-NHC or its derivatives in vero cell medium” value ([8]; supernatant) was “no deoxy-NHC or its derivatives was detected”. For the same compound, the EC50 ([9]; read-out: Anti-Hcov-OC43 EC50) was 0.8 µM and the EC90 ([9]; read-out: Anti-Hcov-OC43 EC90) was 1.8 µM.
In the case of O=c1nc(NO)ccn1[C@@H]1O[C@H](COP(=O)(O)OP(=O)(O)O)[C@@H](O)[C@H]1O [NHC-DP], the “ratio diphosphate : 2'-deoxy-diphosphate in the samples after RNR reaction” value [10] is reported as “around 100:0.1” and the “ratio triphosphate : 2'-deoxy-triphosphate in the samples after RNR reaction” value [10] is reported as ~100:0.009.
